Where “and” joins values, the source holds several entries; their conditions need not be identical. Equal values may be shown once.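 Where inhibition never reached the appropriate level, the endpoint shown equals the highest concentration tested. Otherwise, values were interpolated linearly from a five-concentration, 48-hour dose response in 96-well plates. Abbreviation: GI50, concentration required for 50% inhibition of growth. Definition used: TGI = concentration required for complete inhibition of growth.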
Tests used:
Assay in all cases: NCI anticancer screen, dose series, 48 h
[1] = test system: SR leukemia
[2] = test system: SK-MEL-2 melanoma
[3] = test system: SNB-19 CNS
[4] = test system: HS 578T breast
[5] = test system: SF-268 CNS
[6] = test system: PC-3 prostate
[7] = test system: MALME-3M melanoma
[8] = test system: SN12C renal
[9] = test system: SW-620 colon
[10] = test system: CCRF-CEM leukemia

## Nc1nn(C(=O)Nc2c(F)cccc2F)c2ccccc12
[1]
  GI50: 12.9 µM
  TGI: > 100 µM
[2]
  GI50: > 100 µM
  TGI: > 100 µM
[3]
  GI50: > 100 µM
  TGI: > 100 µM
[4]
  GI50: 73 µM
  TGI: > 100 µM
[5]
  GI50: 36.2 µM
  TGI: > 100 µM
[6]
  GI50: > 100 µM
  TGI: > 100 µM
[7]
  GI50: > 100 µM
  TGI: > 100 µM
[8]
  GI50: > 100 µM
  TGI: > 100 µM
[9]
  GI50: 38.3 µM
  TGI: > 100 µM

## CCCN(CCC)c1ccc(C=O)c(C)c1
[10]
  GI50: 46.8 µM
  TGI: > 100 µM
[1]
  GI50: 40.3 µM
  TGI: > 100 µM
[2]
  GI50: 30.9 µM
  TGI: > 100 µM
[3]
  GI50: 60.9 µM
  TGI: > 100 µM
[4]
  GI50: 39.7 µM
  TGI: > 100 µM
[5]
  GI50: 68 µM
  TGI: > 100 µM
[6]
  GI50: 32.7 µM
  TGI: > 100 µM
[7]
  GI50: 43.8 µM
  TGI: > 100 µM
[8]
  GI50: 56.7 µM
  TGI: > 100 µM
[9]
  GI50: 45.9 µM
  TGI: > 100 µM

## CN1CCN(CCCN2c3ccccc3Sc3ccc(Cl)cc32)CC1
[10]
  GI50: 6.46 µM
  TGI: 15.1 µM
[1]
  GI50: 2.99 µM
  TGI: 11.3 µM
[2]
  GI50: 40.9 µM
  TGI: 59.5 µM
[3]
  GI50: 7.05 µM and 60.7 µM
  TGI: 14.3 µM
[4]
  TGI: 13.5 µM and 83.2 µM
[5]
  GI50: 5.27 µM
  TGI: 12 µM
[6]
  GI50: 3.39 µM
  TGI: 10.4 µM and 80.7 µM
[7]
  GI50: 6.01 µM and 39.7 µM
  TGI: 14.3 µM and 55.9 µM
[8]
  GI50: 5.83 µM and 56.8 µM
  TGI: 12.8 µM
[9]
  GI50: 5.72 µM and 41.8 µM
  TGI: 12 µM and 62.5 µM

## COc1ccc(-c2cn(-c3cc(OC)c(OC)c(OC)c3)c(=O)[nH]2)cc1OC
[10]
  GI50: > 100 µM
  TGI: > 100 µM
[1]
  GI50: > 100 µM
  TGI: > 100 µM
[2]
  GI50: > 100 µM
  TGI: > 100 µM
[3]
  GI50: > 100 µM
  TGI: > 100 µM
[4]
  GI50: 20.2 µM
  TGI: > 100 µM
[5]
  GI50: > 100 µM
  TGI: > 100 µM
[6]
  GI50: > 100 µM
  TGI: > 100 µM
[7]
  GI50: > 100 µM
  TGI: > 100 µM
[8]
  GI50: > 100 µM
  TGI: > 100 µM
[9]
  GI50: > 100 µM
  TGI: > 100 µM

## CCCCCCCCCCCCCCCCN(CC)CC
[1]
  GI50: 1.99 µM
  TGI: 4.51 µM
[2]
  GI50: 3.01 µM
  TGI: 8.9 µM
[3]
  GI50: 3.29 µM
  TGI: 13.9 µM
[4]
  GI50: 3.47 µM
  TGI: 15.8 µM
[5]
  GI50: 2.64 µM
  TGI: 8.31 µM
[6]
  GI50: 2.16 µM
  TGI: 5.97 µM
[7]
  GI50: 1.92 µM
  TGI: 4.35 µM
[8]
  GI50: 2.21 µM
  TGI: 5.53 µM
[9]
  GI50: 2.03 µM
  TGI: 3.9 µM

## O=[N+]([O-])c1oc2ccc3ccccc3c2c1CCO
[10]
  TGI: 39.9 µM
[1]
  TGI: 3.23 µM
[2]
  TGI: 3.94 µM
[3]
  TGI: 68.4 µM
[4]
  TGI: 27.7 µM
[5]
  TGI: 40.5 µM
[6]
  TGI: 87.7 µM
[7]
  TGI: 3.84 µM
[8]
  TGI: > 52 µM
[9]
  TGI: 40.2 µM

## Cc1ccccc1C(C(=O)NC1CCCCC1)N(C(=O)CNc1ccc(C#N)cc1)c1cccc(F)c1 (centres undefined)
[10]
  GI50: > 100 µM
  TGI: > 100 µM
[1]
  GI50: 16.9 µM
  TGI: 92.2 µM
[2]
  GI50: 13.1 µM
  TGI: 32.5 µM
[3]
  GI50: 9.13 µM
  TGI: 37.3 µM
[4]
  GI50: 7.05 µM
  TGI: 67.4 µM
[5]
  GI50: 16.6 µM
  TGI: > 100 µM
[6]
  GI50: 20.3 µM
  TGI: > 100 µM
[7]
  GI50: 15.7 µM
  TGI: > 91.3 µM
[8]
  GI50: 29.7 µM
  TGI: > 100 µM
[9]
  GI50: > 100 µM
  TGI: > 100 µM

## COc1cc(C2CC(=O)Nc3c2c(C)nn3-c2nc3ccccc3[nH]2)cc(OC)c1O (centres undefined)
[10]
  GI50: 1.34 µM
  TGI: > 100 µM
[1]
  GI50: 3.35 µM
  TGI: 14.5 µM
[2]
  GI50: 2.23 µM
  TGI: 4.52 µM
[3]
  GI50: 3.5 µM
  TGI: > 100 µM
[4]
  GI50: 2.05 µM
  TGI: 7.7 µM
[5]
  GI50: 3.83 µM
  TGI: 45 µM
[6]
  GI50: 3.49 µM
  TGI: 38.8 µM
[7]
  GI50: 1.75 µM
  TGI: 3.74 µM
[8]
  GI50: 3.98 µM
  TGI: > 72.3 µM
[9]
  GI50: 3.04 µM
  TGI: 17.4 µM

## COc1ccc2c(c1)C(c1cc(OC)c3c(c1)OCO3)C1=C(COC1=O)N2 (centres undefined)
[10]
  GI50: 0.382 µM
  TGI: > 100 µM
[1]
  GI50: 0.183 µM
  TGI: > 100 µM
[2]
  GI50: 0.347 µM
  TGI: > 44.8 µM
[3]
  GI50: 0.468 µM
  TGI: > 100 µM
[4]
  GI50: 0.214 µM
  TGI: > 79.4 µM
[5]
  GI50: 0.691 µM
  TGI: > 89.2 µM
[6]
  GI50: 0.356 µM
  TGI: > 100 µM
[7]
  TGI: > 100 µM
[8]
  GI50: 0.684 µM
  TGI: > 100 µM
[9]
  GI50: 0.373 µM
  TGI: > 100 µM

## O=C1NC(=NCCc2ccccn2)S/C1=C\c1ccc2ncccc2c1
[10]
  GI50: 10.6 µM
  TGI: > 25 µM
[1]
  GI50: 4.21 µM
  TGI: 14 µM
[2]
  GI50: 9.02 µM
  TGI: > 22.2 µM
[3]
  GI50: 11.1 µM
  TGI: > 25 µM
[4]
  GI50: 9.79 µM
  TGI: > 20.2 µM
[5]
  GI50: 11.4 µM
  TGI: > 25 µM
[6]
  GI50: 15.1 µM
  TGI: > 25 µM
[7]
  GI50: 18.1 µM
  TGI: > 25 µM
[8]
  GI50: 9.33 µM
  TGI: > 25 µM
[9]
  GI50: 8.33 µM
  TGI: > 25 µM

## Cn1c(=O)c(Oc2ccc(F)cc2F)cc2cnc(NC3CCOCC3)nc21
[10]
  GI50: > 25 µM
  TGI: > 25 µM
[1]
  GI50: > 25 µM
  TGI: > 25 µM
[2]
  GI50: > 25 µM
  TGI: > 25 µM
[3]
  GI50: > 25 µM
  TGI: > 25 µM
[4]
  GI50: > 14.3 µM
  TGI: > 25 µM
[5]
  GI50: > 25 µM
  TGI: > 25 µM
[6]
  GI50: > 25 µM
  TGI: > 25 µM
[7]
  GI50: > 25 µM
  TGI: > 25 µM
[8]
  GI50: > 25 µM
  TGI: > 25 µM
[9]
  GI50: > 25 µM
  TGI: > 25 µM

## CC1(C)CCC(C)(C)c2cc(NC(=O)c3ccc(C(=O)O)cc3)ccc21
[10]
  TGI: > 31.6 µM
[1]
  TGI: > 100 µM
[2]
  TGI: > 60.5 µM
[3]
  TGI: 99.3 µM
[4]
  TGI: > 83.5 µM
[5]
  TGI: > 100 µM
[6]
  TGI: > 70.6 µM
[7]
  TGI: 60.1 µM
[8]
  TGI: 93 µM
[9]
  TGI: > 100 µM

## CC1Cc2ccccc2N1C(=O)Cc1nc(N2CCOCC2)cc(=O)[nH]1 (centres undefined)
[10]
  GI50: 20.7 µM and 46.7 µM
  TGI: > 100 µM
[1]
  GI50: 22.6 µM and 24.4 µM
  TGI: 97.3 µM and > 100 µM
[2]
  GI50: 37.1 µM and 49.5 µM
  TGI: > 100 µM
[3]
  GI50: 25.3 µM and 45.8 µM
  TGI: > 100 µM
[4]
  GI50: 1.75 µM and 4.13 µM
  TGI: 33.7 µM and 49.8 µM
[5]
  GI50: 18.1 µM and 19.9 µM
  TGI: > 100 µM
[6]
  GI50: 2.47 µM and 5.2 µM
  TGI: > 100 µM
[7]
  GI50: 3.18 µM and 7.81 µM
  TGI: 61.9 µM and > 79.1 µM
[8]
  GI50: 9.39 µM and 13.9 µM
  TGI: > 100 µM
[9]
  GI50: 27.2 µM and 72.5 µM
  TGI: > 100 µM

— PubChem BioAssay (NCI)
